Test results from US9895450B2, “Anti-wall teichoic antibodies and conjugates” (priority 2013, dated 2018).

Experiments:
[1] = system: MRSA (NRS384 strain of USA300); assay: MIC determinations for intracellular bacteria (inside mouse peritoneal macrophages); assay type: cell-based, S. aureus; conditions: for killing of intracellular MRSA sequestered inside macrophages: dose range including serum Cmax; for potency at killing intracellular MRSA as free antibiotics: tested as free antibiotics
[2] = clinically achieveable serum levels; cited from earlier work
MRSA (USA300) = assay: intravenous infection model in CB17.SCID mice reconstituted with human IgG (SCID:huIgG); assay type: in vivo; conditions: twice-daily 100 mg/Kg, treatment initiated more than 1 day post infection
Procedure: To confirm that the AAC would be effective in the presence of competing human antibodies in vivo, the in vivo infection model was modified to generate mice that express normal levels of human IgG in the serum. […] Four days after infection the bacterial load in the kidneys (FIG. 10C) was assessed.
CB17.SCID mice were reconstituted with human IgG using a dosing regimen optimized to yield constant levels of at least 10 mg/mL of human IgG in serum.
Efficacy of the AAC was compared with that of treatment with vancomycin, the current standard of care treatment for MRSA infections. […]
CB17.SCID mice were reconstituted with human IgG using a dosing regimen optimized to yield constant levels of at least 10 mg/mL of human IgG in serum and infected with 2×10^7 CFU of USA300 by intravenous injection. […] The mice were sacrificed on day 4 post infection, and the total number of surviving bacteria in kidneys (2 kidneys pooled, FIG. 21) and heart (FIG. 22) was determined by plating.
Intravenous Infection Model: 7 week old female mice were used for all in vivo experiments and infections were carried out by intravenous injection into the tail vein. […] The total number of bacteria recovered per mouse (2 kidneys) was determined by plating serial dilutions of the tissue homogenate in PBS 0.05% Tween on Tryptic Soy Agar with 5% defibrinated sheep blood.

MRSA [3] = conditions: vancomycin 2 and 20 μg/mL; rifampin 0.02 and 0.2 μg/mL; TSB
USA300 = assay: intravenous infection model in Balb/c mice, pre-treatment; assay type: in vivo; conditions: antibodies 50 mg/Kg IV 30 minutes prior to infection; vancomycin 110 mg/Kg twice daily IP; day 4
Procedure: Balb/c mice were given a single dose of vehicle control (PBS) or 50 mg/Kg of antibodies by intravenous injection 30 minutes prior to infection with 2×10^7 CFU of USA300. […] Control mice were given twice daily treatments with 110 mg/Kg of vancomycin by intraperitoneal injection (Vanco). All mice were sacrificed on day 4 post-infection, and the total number of surviving bacteria in kidneys (2 kidneys pooled) was determined by plating.
(§1) Intravenous Infection Model: 7 week old female mice were used for all in vivo experiments and infections were carried out by intravenous injection into the tail vein. A/J mice (Jackson Lab) were infected with a dose of 2×10^6 CFU. Balb/c mice (Charles River Laboratories, Hollister, Calif.) were infected with a dose of 2×10^7 CFU. For studies examining the role of competing human IgG (SCID IVIG model), CB17.SCID mice (Charles River Laboratories, Hollister, Calif.) were reconstituted with GammaGard S/D IGIV Immune Globulin (ASD Healthcare, Brooks Ky.) using a dosing regimen optimized to achieve constant serum levels of >10 mg/mL of human IgG. […] The total number of bacteria recovered per mouse (2 kidneys) was determined by plating serial dilutions of the tissue homogenate in PBS 0.05% Tween on Tryptic Soy Agar with 5% defibrinated sheep blood.

MRSA [4] = assay: intravenous infection model in CB17.SCID mice, treatment 1 day after infection; assay type: in vivo; conditions: AAC 50 mg/Kg or antibiotic 0.5 mg/Kg, 1 day post infection; kidneys day 4
Procedure: One day after infection, the mice were treated with 50 mg/Kg of S4497 antibody, 50 mg/Kg of S4497 dimethyl-pipBOR AAC 105 or with 0.5 mg/Kg of dimethyl-pipBOR antibiotic 7, the equivalent dose of antibiotic that is contained in 50 mg/Kg of AAC). Mice were sacrificed 4 days after infection and the total number of surviving bacteria per mouse (2 kidneys pooled) was determined by plating.
as §1

MRSA (USA300 strain) [5] = assay: in vitro macrophage assay (intracellular killing of opsonized MRSA); assay type: cell-based, S. aureus; conditions: 50 μg/mL; macrophages, osteoblasts (MG63), airway epithelial cells (A549), HUVEC
Procedure: Isolation of Peritoneal Macrophages: Peritoneal macrophages were isolated from the peritoneum of 6-8 week old Balb/c mice (Charles River Laboratories, Hollister, Calif.). To increase the yield of macrophages, mice were pre-treated by intraperitoneal injection with 1 mL of thioglycolate media (Becton Dickinson). The thioglycolate media was prepared at a concentration of 4% in water, sterilized by autoclaving, and aged for 20 days to 6 months prior to use. Peritoneal macrophages were harvested 4 days post treatment with thioglycolate by washing the peritoneal cavity with cold phosphate buffered saline. Macrophages were plated in Dulbecco's Modified Eagle Medium (DMEM) supplemented with 10% Fetal Calf Serum, and 10 mM HEPES, without antibiotics, at a density of 4×10^5 cells/well in 24 well culture dishes. Macrophages were cultured over night to permit adherence to the plate. This assay was also utilized to test intracellular killing in non-phagocytic cell types. […]
Infection of Macrophages with Opsonized MRSA: The USA300 strain of MRSA (NRS384) was obtained from the NARSA repository (Chantilly, Va.). […] Serial dilutions of the lysate were made in phosphate buffered saline solution supplemented with 0.05% Tween-20 (to disrupt aggregates of bacteria) and the total number of surviving intracellular bacteria was determined by plating on Tryptic Soy Agar with 5% defibrinated sheep blood.

MRSA [6] = assay: growth inhibition assay / cathepsin release assay; assay type: cell-based, S. aureus; conditions: MRSA cultured overnight with up to 10 μg/mL of AAC
Procedure: An AAC comprising antibody rF1, which binds to a family of cell wall associated proteins was conjugated to a rifamycin derivative. S. aureus (Newman strain) was treated with various doses of the rF1-AAC or with equivalent doses of either antibody alone, rifampicin alone or a mixture of antibody and free rifampicin to permit antibody binding to the bacteria (opsonization) and after 1 hour incubation the opsonized bacteria were fed to macrophages (FIG. 7A).
See: page 863 of Dubowchik et al (2002) Bioconj. Chem. 13:855-869, incorporated by reference for the purposes of this assay. Cathepsin B (from bovine spleen, SIGMA C7800) was added at 10 μg/mL and the samples were incubated for 1 hour at 37° C. As a control, AAC were incubated in buffer alone. The reaction was stopped by addition of 10 volumes of bacterial growth media, Tryptic Soy Broth pH 7.4 (TSB). To estimate the total release of active antibiotic, serial dilutions of the reaction mixture were made in quadruplicate in TSB in 96 well plates and the USA300 strain of S. aureus was added to each well at a final density of 2×10^3 CFU/mL. The cultures were incubated over night at […] with shaking and bacterial growth was measured by reading absorbance at 630 nm using a plate reader.

MRSA (USA300 strain) [7] = assay: intravenous infection model in A/J mice; assay type: in vivo
Procedure: Efficacy of the AAC in an intravenous infection model was also examined. In this model, S. aureus is taken up by circulating neutrophils shortly after infection such that the majority of bacteria found in blood are associated with host cells within minutes after infection (Rogers, et al (1956) J. Exp. Med. 103:713-742). A/J Mice were infected with 2×10^6 CFU of MRSA by intravenous injection, and then treated with 50 mg/Kg of AACs by intravenous injection 30 minutes post infection. In this model, the primary site of infection is the kidney, and mice develop large abscesses that are detectable by two days post infection and fail to be cleared for up to 30 days in the absence of treatment.
Treatments were delivered by IV injection 30 minutes post infection and kidneys were harvested 4 days post infection. The grey dashed line indicates the limit of detection for each organ.
Efficacy of AAC made with pipBOR and dimethyl-pipBOR antibiotic moieties was compared in vivo in the intravenous infection model in A/J mice. […] Seven week old female A/J Mice were infected with 2×10^6 CFU of MRSA (USA300 strain) by intravenous injection into the tail vein. […] Treatments with S4497 antibody, AAC 102 or AAC 105 were administered at the indicated doses 30 minutes after infection. Mice were sacrificed 4 days after infection and the total number of surviving bacteria per mouse (2 kidneys pooled) was determined by plating.
Intravenous Infection Model: 7 week old female mice were used for all in vivo experiments and infections were carried out by intravenous injection into the tail vein. A/J mice (Jackson Lab) were infected with a dose of 2×10^6 CFU. Balb/c mice (Charles River Laboratories, Hollister, Calif.) were infected with a dose of 2×10^7 CFU. […] The total number of bacteria recovered per mouse (2 kidneys) was determined by plating serial dilutions of the tissue homogenate in PBS 0.05% Tween on Tryptic Soy Agar with 5% defibrinated sheep blood.

CCCCCCCCCC(=O)N[C@@H](Cc1c[nH]c2ccccc12)C(=O)N[C@H](CC(N)=O)C(=O)N[C@@H](CC(=O)O)C(=O)N[C@@H]1C(=O)NCC(=O)N[C@@H](CCCN)C(=O)N[C@@H](CC(=O)O)C(=O)N[C@H](C)C(=O)N[C@@H](CC(=O)O)C(=O)NCC(=O)N[C@H](CO)C(=O)N[C@@H]([C@H](C)CC(=O)O)C(=O)N[C@@H](CC(=O)c2ccccc2N)C(=O)O[C@@H]1C [Daptomycin, daptomycin]
killing of intracellular MRSA sequestered inside macrophages [1]: failed to kill

CC(=O)NC[C@H]1CN(c2ccc(N3CCOCC3)c(F)c2)C(=O)O1 [Linezolid, linezolid]
MIC ([1]; Staphylococcus aureus, MRSA inside mouse peritoneal macrophages, antibiotic added 1 day after infection, survival 24 hours later): > 20 µg/mL
killing of intracellular MRSA sequestered inside macrophages [1]: failed to kill

CN[C@H](CC(C)C)C(=O)N[C@H]1C(=O)N[C@@H](CC(N)=O)C(=O)N[C@H]2C(=O)N[C@H]3C(=O)N[C@H](C(=O)N[C@H](C(=O)O)c4cc(O)cc(O)c4-c4cc3ccc4O)[C@H](O)c3ccc(c(Cl)c3)Oc3cc2cc(c3O[C@@H]2O[C@H](CO)[C@@H](O)[C@H](O)[C@H]2O[C@H]2C[C@](C)(N)[C@H](O)[C@H](C)O2)Oc2ccc(cc2Cl)[C@H]1O [Vancomycin, vancomycin]
Serum Cmax [2]: 10000 to 40000 ng/mL
reduction of bacterial loads (MRSA (USA300)): about 50 fold
bacteria remaining viable during the first two hours of antibiotic treatment (MRSA [3]): 90%
loss in viable bacteria by 5 hours (MRSA [3]): 100 fold
killing of intracellular MRSA sequestered inside macrophages [1]: failed to kill
effect of pre-treatment on bacterial loads in kidneys (USA300): cleared the infection in all of the mice tested

CO[C@H]1/C=C/O[C@@]2(C)Oc3c(C)c(O)c4c(=O)c(c5oc6cc(N7CCC(N(C)C)CC7)cc(O)c6nc-5c4c3C2=O)NC(=O)/C(C)=C\C=C\[C@H](C)[C@H](O)[C@@H](C)[C@@H](O)[C@@H](C)[C@H](OC(C)=O)[C@@H]1C [dimethyl-pipBOR, dimethylpiperidyl benzoxazino rifamycin]
potency at killing intracellular MRSA as free antibiotics [1]: more potent than rifampicin
efficacy against established infection (MRSA [4]): failed to clear the infection

piperidyl benzoxazino rifamycin [pipBOR]
potency at killing intracellular MRSA as free antibiotics [1]: more potent than rifampicin

thio-S4497-HC-A118C-MC-vc-PABC-(pipBOR) [rifa-102]
intracellular killing of MRSA (MRSA (USA300 strain) [5]): effectively killed
inhibition of bacterial growth by intact AAC (MRSA [6]): did not result in inhibition of bacterial growth unless the AACs were pre-treated with cathepsin B
efficacy at the highest dose (MRSA (USA300 strain) [7]; 50 mg/Kg): effective
efficacy in kidney infection (MRSA (USA300 strain) [7]; 50 mg/Kg IV 30 minutes post infection, kidneys 4 days post infection): cleared the infection in all of the mice tested
efficacy at lower doses (MRSA (USA300 strain) [7]; doses below 50 mg/Kg): only partially efficacious
